From patent US10857214B2, “Compositions and methods for treating gluten intolerance and disorders arising therefrom” (Codexis, Inc., priority 2015, dated 2020)

Tests used:
[1] = tested on: 33mer from α-gliadin; test: digestion of 33mer peptide by fluid fractions, MALDI-TOF; type: biochemical
Procedure: Left: Silver-stain SDS-PAGE of fraction 1 containing nepenthesin, and MALDI spectrum of 33mer peptide processed with fraction 1. Right: Silver-stain SDS-PAGE of fraction 2 containing an unknown enzyme, and MALDI spectrum of 33mer peptides processed with fraction 2. MALDI of undigested 33mer in red, digested 33mer in black.
Two proteolytic components were isolated. Activity was retested against a 33mer from α-gliadin using MALDI-TOF. Fractions were also analyzed for protein content using MALDI-TOF (sinapinic acid as matrix), highlighting a single peak at 29 kDa. Fractions enriched in non-specific cleavage properties were further purified using gel filtration and retested for purity and for activity against 33mer.
Fluid protein concentrate was exchanged into 50 mM glycine and subjected to column chromatofocusing with fractionation. Fractions were analyzed for activity using MALDI-TOF (Sciex 5800 TOF/TOF, α-cyano-4-hydroxycinnamic acid as matrix). To test for activity, protein substrates were incubated with aliquots of column fractions at room temperature for 20 minutes and the digests analyzed by MALDI-TOF. Fractions enriched in proline cleavage were manually purified by reversed phase chromatography on Protein MacroTraps (Optimize Technologies). Enzyme was eluted and confirmed active against protein substrates.

[2] = tested on: crude gliadin; test: crude gliadin slurry clarification (gravimetric analysis, turbidity at 595 nm); type: biochemical, wheat; details: 10 g/L crude gliadin slurry, pH 2.5, 37° C.; enzyme alone
Procedure: Inset: temporal profiling of slurry (left to right: 0, 30, 60, 90 min) using the protein-enriched fluid extract. […] Turbidity of the digested gliadin was monitored as absorbance at 595 nm ([…]). Black lines represent the turbidity of the gliadin slurry in the absence of protease. Measurement precision was <3% RSD (n=3). […] Data taken from FIGS. 8A-8C. Values reported as milligrams of gliadin per micromolar enzyme concentration per minute digestion time. […] Digest progress was monitored by gravimetric analysis, optical transmission, SDS-PAGE and mass spectrometry. […] For monitoring with optical transmission, digestion reactions were conducted in 96-well plate with ≥3 replicates of each reaction condition, and turbidity monitored at 595 nm at 37° C. every 2 minutes, for 90 minutes (SpectraMax plate reader, Molecular Devices). […] An aliquot of the reaction mixture was analyzed on an 8% SDS-PAGE gel. The remaining amount was centrifuged and the supernatant was analyzed by mass spectrometry.

[3] = tested on: α-gliadin peptide 33mer; test: digestion profile of α-gliadin peptide 33mer under dilute conditions, LC-MS; type: biochemical; details: equivalent digestion conditions at optimum pH (2 for pepsin, 7 for MX)
Description: Normalized relative abundance measured from LC-MS ion chromatograms, using caffeine as internal standard. Figure discloses SEQ ID NOS 88, 28, and 89-91, respectively, in order of appearance.
Using the pepsin-resistant 33mer, the evolution of peptide products was monitored under dilute conditions.

[4] = tested on: crude gliadin; test: SDS-PAGE and proteomic LC-MS/MS analysis of crude gliadin digests; type: biochemical, Triticum aestivum
Procedure: Digestions at pH 2.5 and 37° C., for 90 min. All concentrations in μM. M: Molecular weight markers, and gliadin: total crude gliadin in the absence of protease. […] Peptide data from LC-MS/MS runs, with intensities obtained using Protein Deconvolution 1.0. […] A stock gliadin slurry of 20-50 mg/ml was prepared in acidic solution (100 mM glycine HCl, pH 2.5) and briefly sonicated to further break up large particulates and promote suspension. Digestions of 10 mg/mL gliadin slurries were initiated by addition of enzyme (pepsin, fluid enzymes or both) and held at 37° C. with gentle rotation. Digest progress was monitored by gravimetric analysis, optical transmission, SDS-PAGE and mass spectrometry. For gravimetric analysis, digests were quenched by boiling and treated with TCA/chloroform, followed by centrifugation to recover undigested or poorly digested protein. For monitoring with optical transmission, digestion reactions were conducted in 96-well plate with ≥3 replicates of each reaction condition, and turbidity monitored at 595 nm at 37° C. every 2 minutes, for 90 minutes (SpectraMax plate reader, Molecular Devices). The plate was shaken at medium speed briefly between measurements. The digests were quenched after 90 min reaction by boiling for 10 minutes (confirmed to have no impact on digestion profile, a posteriori). An aliquot of the reaction mixture was analyzed on an 8% SDS-PAGE gel. The remaining amount was centrifuged and the supernatant was analyzed by mass spectrometry. Supernatant was analyzed by data-dependent LC-MS/MS, in two 1-hour reversed phase gradient runs, configured for top-10 ion selection using CID in a high/low configuration. In one run, ion selection was restricted to 2+ and higher charge states. In the other run, ion selection was applied to 1+ charge states only. Data from both runs were combined and searched against all UniprotKB/Swiss-Prot entries for gliadin and glutenin from Triticum aestivum (25 proteins), using Mascot v2.3, configured for non-specific digestions and filtered for peptide hits with p<0.05. For estimation of peptide size distribution, all LC-MS spectra were combined and deconvoluted in Protein Deconvolution v1.0, with appropriate settings. For label-free quantitative analysis using the subset of the digest identified in the database search, the hit list was combined with the raw data in Mass Spec Studio and used to generate a set of peptide ion chromatograms, integrated over all isotopes to determine a weight-average intensity for each peptide sequence identified.

[5] = tested on: crude gliadin digests treated with human transglutaminase-2; test: TG2-induced deamidation of gliadin digestion products; type: biochemical; details: 0.1 mg/mL human transglutaminase-2, pH 7.5, 37° C., 90 minutes
Description: Fractional deamidation quantified for all peptides from ion chromatogram intensities; data presented as a ratio, where the antigenic peptide deamidation is normalized to the non-antigenic peptide deamidation at the indicated protease concentration. Antigenic regions defined using the DQ2 criteria, inset table.
Whether enhanced digestion profiles would impact deamidation in antigenic regions was investigated. The recognition of immunodominant peptides by T cells is amplified when these peptides are deamidated in their core binding region by tissue transglutaminase 2 (TG2), particularly at position P4 or P6 in HLA DQ2 associated celiac disease. […] Crude gliadin digests were analyzed for the conversion of non-deamidated peptides to deamidated forms, and sorted all the peptides using a previously published algorithm for the identification of DQ2 binding motifs.
Supernatants from crude gliadin digests were treated with 0.1 mg/mL human transglutaminase-2 (R&D Systems, Cat. 4376-TG-050) in 100 mM Tris-HCl pH 7.5, 2 mM CaCl2 at 37° C. for 90 minutes, and quenched at 95° C. for 15 minutes, following a published protocol. Treated digests were analyzed by data-dependent LC-MS/MS as described above, allowing for variable N and Q deamidation in database searches. […]

[6] = tested on: NOD DQ8 mice; test: transgenic NOD/HLA-DQ8 mouse model of gliadin sensitivity; details: gliadin codigested with pepsin 100:1 and fluid enzyme 264:1 or nepenthesin II 100:1; pepsin alone is positive control

## pepsin: gastric enzyme (EC 3.4.23.1) used as control protease
[1]
  digestion of 33mer peptide derived from α-gliadin: highly resistant to digestion
[2]
  maximum clarification rate: 0.3 mg/µM/min
[3]
  hydrolysis of 33mer peptide: Neither pepsin nor a bacterial prolyl endoprotease from Myxococcus xanthus (MX) were able to hydrolyse
[4]; 10 mg/ml gliadin, pH 2.5, 37° C., 90 min
  digestion of total protein of crude gliadin by SDS-PAGE: could not be achieved
[4]; 10 mg/ml gliadin, pH 2.5, 37° C., 90 min, high concentrations of pepsin
  detected digest product having a molecular weight greater than 4000 Da: 25 wt %
[4]; 10 mg/ml gliadin, pH 2.5, 37° C., 90 min, pepsin 5 μM, fluid extract 0.23 μM
  average peptide length, label-free, all peptide signals: 19.2 residues
[4]; pepsin 5 μM, fluid protease 0.46 μM, co-digestion using these two concentrations
  weighted average peptide length, identified peptides: 16.9 residues
[5]
  peptide conversion (deamidation) in antigenic regions compared to non-antigenic regions: over 5.5 times
[6]
  small intestinal CD3+ intraepithelial lymphocyte (IEL) counts: significant increases
